Reference: patent US20230085307A1, “PYRIDAZINONE COMPOUND AND HERBICIDE” (NISSAN CHEMICAL CORPORATION, priority 2019, published 2023)

How the values were obtained:
chickweed [1] = assay: Test Example 5: herbicidal effect by foliage application, plastic box (Table 20, symbol P); format: in vivo, common chickweed (Stellaria media); conditions: foliage application, 320 g/ha, evaluated three weeks after application
In short: (§1)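 Plants were sown into sterilized diluvial soil under about 1.5 cm cover and kept in a greenhouse at 25° C. to 30° C. Fourteen days on, foliage received an even spray of the diluted emulsion. Herbicidal or crop effect was judged three weeks afterwards.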

blackgrass [2] = assay: Test Example 4: herbicidal effect by soil treatment (Table 19, symbol J); format: in vivo, blackgrass (Alopecurus myosuroides); conditions: 320 g/ha
In short: (§2)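 In this soil treatment, the formulated compound reached the seeds only through the soil: seeds were buried about 1.5 cm deep in sterilized diluvial soil, then the diluted emulsion was sprayed over the surface. After three weeks at 25° C. to 30° C. in a greenhouse, effects were graded on criteria from an earlier test.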

rice flat sedge = assay: Test Example 3: herbicidal effect by foliage application, Wagner pot (Table 18, symbol E); format: in vivo, rice flat sedge (Cyperus iria); conditions: 320 g/ha
In short: (§3)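 Plants were sown in alluvial soil held under 0.1–0.5 cm standing water and grown 14 days in a greenhouse at 25–30 °C. An emulsifiable formulation, water-diluted to the set dose, was then sprayed onto the foliage, and effects were scored three weeks later using previously defined criteria.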

redroot pigweed [3] = assay: Test Example 4: herbicidal effect by soil treatment (Table 19, symbol N); format: in vivo, redroot pigweed (Amaranthus retroflexus); conditions: 320 g/ha
In short: as §2

lambsquarters [4] = assay: Test Example 5: herbicidal effect by foliage application, plastic box (Table 20, symbol O); format: in vivo, lambsquarters (Chenopodium album); conditions: foliage application, 320 g/ha, evaluated three weeks after application
In short: as §1

lambsquarters [5] = assay: Test Example 4: herbicidal effect by soil treatment (Table 19, symbol O); format: in vivo, lambsquarters (Chenopodium album); conditions: 320 g/ha
In short: as §2

windgrass [6] = assay: Test Example 5: herbicidal effect by foliage application, plastic box (Table 20, symbol L); format: in vivo, windgrass (Apera spica-venti); conditions: foliage application, 320 g/ha, evaluated three weeks after application
In short: as §1

barnyard grass [7] = assay: Test Example 4: herbicidal effect by soil treatment (Table 19, symbol H); format: in vivo, barnyard grass (Echinochloa crus-galli); conditions: 320 g/ha
In short: as §2

southern crabgrass [8] = assay: Test Example 4: herbicidal effect by soil treatment (Table 19, symbol F); format: in vivo, southern crabgrass (Digitaria ciliaris); conditions: 320 g/ha
In short: as §2

green foxtail [9] = assay: Test Example 4: herbicidal effect by soil treatment (Table 19, symbol G); format: in vivo, green foxtail (Setaria viridis); conditions: 320 g/ha
In short: as §2

barnyard grass [10] = assay: Test Example 3: herbicidal effect by foliage application, Wagner pot (Table 18, symbol H); format: in vivo, barnyard grass (Echinochloa crus-galli); conditions: 320 g/ha
In short: as §3

chickweed [11] = assay: Test Example 4: herbicidal effect by soil treatment (Table 19, symbol P); format: in vivo, common chickweed (Stellaria media); conditions: 320 g/ha
In short: as §2

green foxtail [12] = assay: Test Example 5: herbicidal effect by foliage application, plastic box (Table 20, symbol G); format: in vivo, green foxtail (Setaria viridis); conditions: foliage application, 320 g/ha, evaluated three weeks after application
In short: as §1

windgrass [13] = assay: Test Example 4: herbicidal effect by soil treatment (Table 19, symbol L); format: in vivo, windgrass (Apera spica-venti); conditions: 320 g/ha
In short: as §2

velvetleaf [14] = assay: Test Example 4: herbicidal effect by soil treatment (Table 19, symbol M); format: in vivo, velvetleaf (Abutilon theophrasti); conditions: 320 g/ha
In short: as §2

persian speedwell [15] = assay: Test Example 4: herbicidal effect by soil treatment (Table 19, symbol R); format: in vivo, Persian speedwell (Veronica persica); conditions: 320 g/ha
In short: as §2

persian speedwell [16] = assay: Test Example 5: herbicidal effect by foliage application, plastic box (Table 20, symbol R); format: in vivo, Persian speedwell (Veronica persica); conditions: foliage application, 320 g/ha, evaluated three weeks after application
In short: as §1

Italian ryegrass [17] = assay: Test Example 4: herbicidal effect by soil treatment (Table 19, symbol K); format: in vivo, Italian ryegrass (Lolium multiflorum); conditions: 320 g/ha
In short: as §2

southern crabgrass [18] = assay: Test Example 5: herbicidal effect by foliage application, plastic box (Table 20, symbol F); format: in vivo, southern crabgrass (Digitaria ciliaris); conditions: foliage application, 320 g/ha, evaluated three weeks after application
In short: as §1

barnyard grass [19] = assay: Test Example 5: herbicidal effect by foliage application, plastic box (Table 20, symbol H); format: in vivo, barnyard grass (Echinochloa crus-galli); conditions: foliage application, 320 g/ha, evaluated three weeks after application
In short: as §1

wild oat [20] = assay: Test Example 4: herbicidal effect by soil treatment (Table 19, symbol I); format: in vivo, wild oat (Avena fatua); conditions: 320 g/ha
In short: as §2

redroot pigweed [21] = assay: Test Example 5: herbicidal effect by foliage application, plastic box (Table 20, symbol N); format: in vivo, redroot pigweed (Amaranthus retroflexus); conditions: foliage application, 320 g/ha, evaluated three weeks after application
In short: as §1

velvetleaf [22] = assay: Test Example 5: herbicidal effect by foliage application, plastic box (Table 20, symbol M); format: in vivo, velvetleaf (Abutilon theophrasti); conditions: foliage application, 320 g/ha, evaluated three weeks after application
In short: as §1

wild oat [23] = assay: Test Example 5: herbicidal effect by foliage application, plastic box (Table 20, symbol I); format: in vivo, wild oat (Avena fatua); conditions: foliage application, 320 g/ha, evaluated three weeks after application
In short: as §1

blackgrass [24] = assay: Test Example 5: herbicidal effect by foliage application, plastic box (Table 20, symbol J); format: in vivo, blackgrass (Alopecurus myosuroides); conditions: foliage application, 320 g/ha, evaluated three weeks after application
In short: as §1

Italian ryegrass [25] = assay: Test Example 5: herbicidal effect by foliage application, plastic box (Table 20, symbol K); format: in vivo, Italian ryegrass (Lolium multiflorum); conditions: foliage application, 320 g/ha, evaluated three weeks after application
In short: as §1

Chinese sprangletop = assay: Test Example 3: herbicidal effect by foliage application, Wagner pot (Table 18, symbol D); format: in vivo, chinese sprangletop (Leptochloa chinensis); conditions: 320 g/ha
In short: as §3

C#CCOc1ccc(-c2sc3ccc(F)cc3c2-c2c(OCC#C)c(C)nn(C)c2=O)cc1 [2-054]
herbicidal effect on P: chickweed (chickweed [1]): 5 (Herbicidal rate of 90% or more (almost completely withered)) | herbicidal effect rating, J: blackgrass (blackgrass [2]): 0 (Herbicidal rate of 5% or less (almost no effect)) | herbicidal effect on E (rice flat sedge), rating 0-5 (rice flat sedge): 3 (Herbicidal rate of 40% or more and less than 70%) | herbicidal effect rating, N: redroot pigweed (redroot pigweed [3]): 3 (Herbicidal rate of 40% or more and less than 70%) | herbicidal effect on O: lambsquarters (lambsquarters [4]): 3 (Herbicidal rate of 40% or more and less than 70%) | herbicidal effect rating, O: lambsquarters (lambsquarters [5]): 0 (Herbicidal rate of 5% or less (almost no effect)) | herbicidal effect on L: windgrass (windgrass [6]): 0 (Herbicidal rate of 5% or less (almost no effect)) | herbicidal effect rating, H: barnyard grass (barnyard grass [7]): 0 (Herbicidal rate of 5% or less (almost no effect)) | herbicidal effect rating, F: southern crabgrass (southern crabgrass [8]): 0 (Herbicidal rate of 5% or less (almost no effect)) | herbicidal effect rating, G: green foxtail (green foxtail [9]): 0 (Herbicidal rate of 5% or less (almost no effect)) | herbicidal effect on H (barnyard grass), rating 0-5 (barnyard grass [10]): 4 (Herbicidal rate of 70% or more and less than 90%) | herbicidal effect rating, P: chickweed (chickweed [11]): 0 (Herbicidal rate of 5% or less (almost no effect)) | herbicidal effect on G: green foxtail (green foxtail [12]): 3 (Herbicidal rate of 40% or more and less than 70%) | herbicidal effect rating, L: windgrass (windgrass [13]): 0 (Herbicidal rate of 5% or less (almost no effect)) | herbicidal effect rating, M: velvetleaf (velvetleaf [14]): 0 (Herbicidal rate of 5% or less (almost no effect)) | herbicidal effect rating, R: persian speedwell (persian speedwell [15]): 3 (Herbicidal rate of 40% or more and less than 70%) | herbicidal effect on R: persian speedwell (persian speedwell [16]): 5 (Herbicidal rate of 90% or more (almost completely withered)) | herbicidal effect rating, K: Italian ryegrass (Italian ryegrass [17]): 0 (Herbicidal rate of 5% or less (almost no effect)) | herbicidal effect on F: southern crabgrass (southern crabgrass [18]): 0 (Herbicidal rate of 5% or less (almost no effect)) | herbicidal effect on H: barnyard grass (barnyard grass [19]): 3 (Herbicidal rate of 40% or more and less than 70%) | herbicidal effect rating, I: wild oat (wild oat [20]): 0 (Herbicidal rate of 5% or less (almost no effect)) | herbicidal effect on N: redroot pigweed (redroot pigweed [21]): 4 (Herbicidal rate of 70% or more and less than 90%) | herbicidal effect on M: velvetleaf (velvetleaf [22]): 4 (Herbicidal rate of 70% or more and less than 90%) | herbicidal effect on I: wild oat (wild oat [23]): 0 (Herbicidal rate of 5% or less (almost no effect)) | herbicidal effect on J: blackgrass (blackgrass [24]): 0 (Herbicidal rate of 5% or less (almost no effect)) | herbicidal effect on K: Italian ryegrass (Italian ryegrass [25]): 0 (Herbicidal rate of 5% or less (almost no effect)) | herbicidal effect on D (Chinese sprangletop), rating 0-5 (Chinese sprangletop): 5 (Herbicidal rate of 90% or more (almost completely withered))
